PubChem BioAssay (NCI)
Where “and” joins values, the source holds several entries; their conditions need not be identical. Identical values can stand only once.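 Compound exposure: 48 hours, 5 concentrations, 96-well plates. Here, GI50 denotes the concentration required for 50% inhibition of growth. TGI: total growth inhibition.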

Legend:
Assay in all cases: inhibition of tumour cell growth, NCI panel, 48 h
TK-10 renal = test system: TK-10 renal
NCI-H460 lung = test system: NCI-H460 lung
UACC-62 melanoma = test system: UACC-62 melanoma
786-0 renal = test system: 786-0 renal
CAKI-1 renal = test system: CAKI-1 renal
EKVX NSCLC = test system: EKVX NSCLC
SNB-75 CNS = test system: SNB-75 CNS
HOP-62 NSCLC = test system: HOP-62 NSCLC
UO-31 renal = test system: UO-31 renal
BT-549 breast = test system: BT-549 breast

O=C(O)c1cc[c]([Hg][S]c2ncnc3nc[nH]c23)cc1
GI50 (TK-10 renal): 2.59 µM | TGI (TK-10 renal): 14.3 µM | GI50 (NCI-H460 lung): 13.1 µM | TGI (NCI-H460 lung): 28.5 µM | GI50 (UACC-62 melanoma): 2.88 µM | TGI (UACC-62 melanoma): 15.4 µM | GI50 (786-0 renal): 5.83 µM | TGI (786-0 renal): 21.9 µM | GI50 (CAKI-1 renal): 4.96 µM | TGI (CAKI-1 renal): 21.1 µM | GI50 (EKVX NSCLC): 19.2 µM | TGI (EKVX NSCLC): 34.9 µM | GI50 (SNB-75 CNS): 1.45 µM | TGI (SNB-75 CNS): 19.4 µM | GI50 (HOP-62 NSCLC): 10.7 µM | TGI (HOP-62 NSCLC): 26.1 µM | GI50 (UO-31 renal): 4.79 µM | TGI (UO-31 renal): 17 µM | GI50 (BT-549 breast): 8.12 µM | TGI (BT-549 breast): 21.6 µM

Clc1ccc(COC(Cn2ccnc2)c2ccc(Cl)cc2Cl)cc1 (stereo unspecified)
GI50 (TK-10 renal): 2.68 µM | TGI (TK-10 renal): 7.15 µM and 29 µM and 23.9 µM | GI50 (NCI-H460 lung): 2.69 µM | TGI (NCI-H460 lung): 10.1 µM and 44.4 µM and 28.7 µM | GI50 (UACC-62 melanoma): 2.16 µM | TGI (UACC-62 melanoma): 11.9 µM and 25.2 µM and 22.3 µM | GI50 (786-0 renal): 1.88 µM | TGI (786-0 renal): 4.01 µM and 25.8 µM and 26.3 µM | GI50 (CAKI-1 renal): 2.05 µM | TGI (CAKI-1 renal): 9.58 µM and 24.9 µM and 23.6 µM | GI50 (EKVX NSCLC): 2.91 µM | TGI (EKVX NSCLC): 13.9 µM and 25.5 µM and 27.5 µM | GI50 (SNB-75 CNS): 4.97 µM | TGI (SNB-75 CNS): 17.5 µM and 26.8 µM and 30.1 µM | GI50 (HOP-62 NSCLC): 3.02 µM | TGI (HOP-62 NSCLC): 13.6 µM and 26.8 µM and 35.6 µM | GI50 (UO-31 renal): 1.44 µM | TGI (UO-31 renal): 5.91 µM and 17.4 µM and 14.6 µM | GI50 (BT-549 breast): 2.48 µM | TGI (BT-549 breast): 6.63 µM and 35.3 µM and 30.4 µM

CCc1nc(N)nc(N)c1-c1ccc([N+](=O)[O-])c(NCc2ccccc2)c1
TGI (TK-10 renal): 53.2 µM | TGI (NCI-H460 lung): 20.2 µM | TGI (UACC-62 melanoma): 35.7 µM | TGI (786-0 renal): 29.8 µM | TGI (CAKI-1 renal): 29.3 µM | TGI (EKVX NSCLC): 41.6 µM | TGI (SNB-75 CNS): 35.4 µM | TGI (HOP-62 NSCLC): 28.9 µM | TGI (UO-31 renal): 22.2 µM | TGI (BT-549 breast): 47.1 µM

COc1cc(-c2oc3ccccc3c(=O)c2O)cc(OC)c1OC
TGI (TK-10 renal): > 88.5 µM | TGI (NCI-H460 lung): > 100 µM | TGI (UACC-62 melanoma): > 100 µM | TGI (786-0 renal): 41.6 µM | TGI (CAKI-1 renal): > 100 µM | TGI (EKVX NSCLC): > 100 µM | TGI (SNB-75 CNS): 25.6 µM | TGI (HOP-62 NSCLC): 71.1 µM | TGI (UO-31 renal): > 100 µM | TGI (BT-549 breast): > 100 µM

S=C(N/N=C/c1cc(Cl)cc(Cl)c1)NC12CC3CC(CC(C3)C1)C2
GI50 (TK-10 renal): 4.44 µM | TGI (TK-10 renal): 19.1 µM | GI50 (NCI-H460 lung): 2.66 µM | TGI (NCI-H460 lung): > 100 µM | GI50 (UACC-62 melanoma): 10.2 µM | TGI (UACC-62 melanoma): > 100 µM | GI50 (786-0 renal): 8.63 µM | TGI (786-0 renal): > 100 µM | GI50 (CAKI-1 renal): 3.6 µM | TGI (CAKI-1 renal): 92.8 µM | GI50 (SNB-75 CNS): 2 µM | TGI (SNB-75 CNS): 5.46 µM | GI50 (HOP-62 NSCLC): 2.43 µM | TGI (HOP-62 NSCLC): 5.93 µM | GI50 (UO-31 renal): 4.86 µM | TGI (UO-31 renal): > 100 µM | GI50 (BT-549 breast): > 100 µM | TGI (BT-549 breast): > 100 µM

COc1ccc(-c2cc(-c3ccc(Cl)cc3)c(C#N)c(=O)n2CCCCC(=O)Nc2ccccc2N)cc1
GI50 (TK-10 renal): 27.9 µM | TGI (TK-10 renal): > 100 µM | GI50 (NCI-H460 lung): 4.26 µM | TGI (NCI-H460 lung): 56.6 µM | GI50 (UACC-62 melanoma): 3.29 µM | TGI (UACC-62 melanoma): 13 µM | GI50 (786-0 renal): 7.46 µM | TGI (786-0 renal): > 100 µM | GI50 (CAKI-1 renal): 2.52 µM | TGI (CAKI-1 renal): 20.2 µM | GI50 (EKVX NSCLC): 3.25 µM | TGI (EKVX NSCLC): 91.3 µM | GI50 (HOP-62 NSCLC): 12.7 µM | TGI (HOP-62 NSCLC): > 100 µM | GI50 (UO-31 renal): 4.71 µM | TGI (UO-31 renal): > 100 µM | GI50 (BT-549 breast): 4.71 µM | TGI (BT-549 breast): 31.9 µM

N/C(=N\OC(=O)c1ccccc1)C(C(=O)NOC(=O)c1ccccc1)C1CCCCC1 (stereo unspecified)
GI50 (TK-10 renal): 12.4 µM | TGI (TK-10 renal): 26.9 µM | GI50 (NCI-H460 lung): 2.85 µM | TGI (NCI-H460 lung): 9.61 µM | GI50 (UACC-62 melanoma): 11.4 µM | TGI (UACC-62 melanoma): 32.9 µM | GI50 (786-0 renal): 13.9 µM | TGI (786-0 renal): 26.9 µM | GI50 (CAKI-1 renal): 0.5 µM | TGI (CAKI-1 renal): 1.73 µM | GI50 (EKVX NSCLC): 6.1 µM | TGI (EKVX NSCLC): 20.9 µM | GI50 (SNB-75 CNS): 2.79 µM | TGI (SNB-75 CNS): 11.9 µM | GI50 (HOP-62 NSCLC): 2.87 µM | TGI (HOP-62 NSCLC): 9.09 µM | GI50 (UO-31 renal): 2.01 µM | TGI (UO-31 renal): 3.96 µM | GI50 (BT-549 breast): 3.98 µM | TGI (BT-549 breast): 15.1 µM
